{"source": "patent US11213536B2", "about": "“Acylated compounds for the treatment of ocular pathologies” (CONSEJO SUPERIOR DE INVESTIGACIONES CIENTÍFICAS, priority 2016, dated 2022)", "system": "SH-SY5Y neuroblastoma cell line", "test": "Neuroprotection assay: SH-SY5Y viability (MTT) after H2O2 damage", "type": "cell-based", "settings": "H2O2 100 μM, RES 10 μM, MTT 24 h", "procedure": "The SH-SY5Y neuroblastoma cell line was cultured in petri dishes pre-treated with collagen (100 μg/ml) with F12 medium supplemented with penicillin/streptomycin and 10% inactivated fetal bovine serum.\nCell viability assays with neurons were prepared in 96-well plates pre-treated with collagen by seeding 20,000 cells/well in a volume of 100 μl and incubating the cells for 24 h before the addition of the compounds. The compounds to be tested were dissolved in DMSO and added in three different concentrations (1, 10 and 100 μM) in order to determine their toxicity. The final percentage of DMSO in each well was adjusted to 1%. The cell viability was evaluated 24 h after the addition of the compounds by means of the MTT assay according to the manufacturer's method. Mean values and standard deviations were calculated from at least 8 different measurements from several independent experiments.\nNeuroprotection assays. […] The cell viability was evaluated 24 h after the addition of the compounds by means of the MTT assay according to the manufacturer's method. Mean values and standard deviations were calculated from at least 8 different measurements from several independent experiments. Neuronal recovery was calculated by normalizing the results of the neuronal viability experiments after the addition of our compounds and H2O2 to the positive control of each experiment (neurons+H2O2).", "data": [{"smiles": "Oc1ccc(C=Cc2cc(O)cc(O)c2)cc1", "note": "[RES, resveratrol, reference compound]", "values": [{"measurement": "recovery of cell viability", "result": "up to 50%"}]}]}
